Reference: EPA's ToxRefDB 2

Tests used:
[1] = test system: mouse; settings: Carcinogenicity, b6c3f1, Oral, Feed, dose end: 103 week, group: systemic
[2] = test system: rat; settings: Subchronic oral toxicity in rodents, fischer, Feed, dose end: 13 week, group: systemic
[3] = test system: mouse; settings: Subchronic oral toxicity in rodents, b6c3f1, Feed, dose end: 13 week, group: systemic
[4] = test system: rat; settings: Carcinogenicity, fischer, Oral, Feed, dose end: 103 week, group: systemic
[5] = test system: rabbit; settings: Prenatal developmental toxicity study, Dermal, Topical, dose end: 16 GD, group: maternal
[6] = test system: mouse; settings: Prenatal developmental toxicity study, CD-1, Dermal, Topical, dose end: 13 GD, group: maternal
[7] = test system: rat; settings: Prenatal developmental toxicity study, sprague dawley, Oral, Gavage/Intubation, dose end: 15 GD
[8] = test system: dog; settings: Subchronic oral toxicity in nonrodent, beagle, Feed, dose end: 13 week, group: systemic, systemic / in life observation / body weight / body weight + systemic / in life observation / body weight / body weight gain + systemic / in…
[9] = test system: mouse; settings: Carcinogenicity; cd1; Oral; Feed; dose end: 102 week; group: systemic; systemic / organ weight / liver / absolute + systemic / organ weight / liver / relative to body weight
[10] = test system: mouse; settings: Carcinogenicity, cd1, Oral, Feed, dose end: 8 week, group: systemic
[11] = test system: rat; settings: Subchronic oral toxicity in rodents, sprague dawley, Feed, dose end: 90 day, group: systemic
[12] = test system: rat; settings: Combined chronic toxicity/carcinogenicity, sprague dawley, Oral, Feed, dose end: 104 week, group: systemic
[13] = test system: dog; settings: Chronic toxicity, beagle, Oral, Feed, dose end: 8 week, group: systemic
[14] = test system: dog; settings: Chronic toxicity; beagle; Oral; Feed; dose end: 52 week; group: systemic; systemic / organ weight / thyroid gland / absolute + systemic / organ weight / thyroid gland / relative to body weight + systemic / …
[15] = test system: rat; settings: Chronic toxicity; sprague dawley; Oral; Gavage/Intubation; dose end: 6 month; group: systemic; systemic / clinical chemistry / sodium / sodium + systemic / clinical chemistry / bilirubin / total bilirubin + systemic / clinical …
[16] = test system: rabbit; settings: Prenatal developmental toxicity study; new zealand white; Oral; Gavage/Intubation; dose end: 19 GD; group: maternal; systemic / in life observation / body weight / body weight gain
[17] = test system: rabbit; settings: Prenatal developmental toxicity study; new zealand white; Oral; Gavage/Intubation; dose end: 19 GD; group: maternal; systemic / in life observation / body weight / body weight + systemic / in life observation / body weight / body weight gain + systemic / in…
[18] = test system: rat; settings: Fertility (Segment I), sprague dawley, Oral, Gavage/Intubation, dose end: 7 GD
[19] = test system: rat; settings: Sub-acute repeat dose toxicity, sprague dawley, Oral, Gavage/Intubation, dose end: 31 day, group: systemic
[20] = test system: rat; settings: Fertility (Segment I), sprague dawley, Oral, Gavage/Intubation, dose end: 2 week, group: parental
[21] = test system: rat; settings: Prenatal developmental toxicity study, sprague dawley, Oral, Gavage/Intubation, dose end: 17 GD
[22] = test system: rat; settings: Prenatal developmental toxicity study, sprague dawley, Oral, Gavage/Intubation, dose end: 17 GD, group: maternal
[23] = test system: dog; settings: Sub-acute repeat dose toxicity; beagle; Oral; Capsule; dose end: 1 month; group: systemic; systemic / clinical chemistry / triglycerides / triglycerides
[24] = test system: rat; settings: Fertility (Segment I), sprague dawley, Oral, Gavage/Intubation, dose end: 7 GD; remark: listed apart in the source
[25] = systemic / pathology microscopic / bone marrow / myelofibrosis + systemic / pathology microscopic / mammary gland / cyst + systemic / …
[26] = systemic / pathology microscopic / liver / adenoma + systemic / pathology microscopic / pituitary gland / adenoma + systemic / pathology …
[27] = systemic / in life observation / body weight / body weight + systemic / pathology microscopic / bone / osteopetrosis + systemic / pathology …
[28] = systemic / pathology microscopic / bone / osteopetrosis + systemic / in life observation / body weight / body weight
[29] = systemic / in life observation / mortality / mortality + systemic / pathology microscopic / adrenal gland / vacuolization cytoplasmic + …
[30] = systemic / pathology microscopic / uterus / hyperplasia
[31] = systemic / in life observation / body weight / body weight gain
[32] = systemic / in life observation / body weight / body weight gain + systemic / pathology microscopic / eye / cataract + systemic / pathology …
[33] = systemic / in life observation / body weight / body weight gain + systemic / in life observation / clinical signs / erythema + systemic / in…
[34] = group: developmental, developmental / developmental malformation / bone / short
[35] = group: maternal, systemic / in life observation / mortality / mortality + reproductive / reproductive performance / resorptions / resorptions
[36] = systemic / organ weight / liver / relative to body weight
[37] = systemic / organ weight / liver / relative to body weight + systemic / clinical chemistry / alkaline phosphatase (alp/alk) / alkaline …
[38] = systemic / clinical chemistry / albumin-globulin ratio / albumin-globulin ratio + systemic / clinical chemistry / phosphorus / phosphate
[39] = systemic / hematology / erythrocyte (rbc) count differential / erythrocyte (rbc) + systemic / hematology / leukocyte (wbc) count …
[40] = systemic / clinical chemistry / alanine aminotransferase (alt/sgpt) / alanine aminotransferase (alt/sgpt)
[41] = systemic / clinical chemistry / alanine aminotransferase (alt/sgpt) / alanine aminotransferase (alt/sgpt) + systemic / clinical chemistry / …
[42] = group: maternal, reproductive / reproductive performance / estrous cycle / abnormal + reproductive / reproductive performance / estrous cycle / corpora lutea…
[43] = group: parental, systemic / in life observation / clinical signs / fur (altered appearance) + systemic / in life observation / clinical signs / salivation
[44] = group: parental, systemic / in life observation / clinical signs / fur (altered appearance) + systemic / in life observation / clinical signs / salivation + …
[45] = systemic / clinical chemistry / albumin / albumin + systemic / clinical chemistry / phosphorus / phosphorus + systemic / clinical chemistry…
[46] = systemic / hematology / reticulocyte / reticulocyte + systemic / pathology microscopic / lung / histiocytosis + systemic / hematology / …
[47] = systemic / in life observation / body weight / body weight + systemic / in life observation / body weight / body weight gain + systemic / in…
[48] = group: developmental, systemic / in life observation / body weight / fetal weight
[49] = group: maternal, systemic / in life observation / clinical signs / piloerection
[50] = reproductive / reproductive performance / postimplantation loss / postimplantation loss + systemic / in life observation / body weight / …
[51] = group: parental, systemic / in life observation / clinical signs / piloerection
[52] = group: parental, systemic / in life observation / clinical signs / piloerection + systemic / in life observation / body weight / body weight + systemic / in …

## C[C@H]1CCCC(=O)CCC/C=C/c2cc(O)cc(O)c2C(=O)O1 [Zearalenone]
[1]; [25]
  LEL: 7.5 mg/kg/day
  NEL: < 7.5 mg/kg/day
[1]; [26]
  LOAEL: > 15 mg/kg/day
  NOAEL: ≥ 15 mg/kg/day
[2]; [27]
  LOAEL: > 150 mg/kg/day
  NOAEL: ≥ 150 mg/kg/day
[2]; [28]
  LEL: 1.5 mg/kg/day
  NEL: < 1.5 mg/kg/day
[3]; [29]
  LOAEL: > 450 mg/kg/day
  NOAEL: ≥ 450 mg/kg/day
[3]; [30]
  LEL: 4.5 mg/kg/day
  NEL: < 4.5 mg/kg/day
[4]; [31]
  LOAEL: 2.5 mg/kg/day
[4]; [32]
  LEL: 1.25 mg/kg/day
  NEL: < 1.25 mg/kg/day
  NOAEL: 1.25 mg/kg/day

## CCCCCCCCCCC(C)c1ccc(S(=O)(=O)O)cc1 (configuration not stated) [Alkylbenzenesulfonate, linear]
[5]; [31]
  LEL: 9 mg/kg/day
[5]; [33]
  LOAEL: > 90 mg/kg/day
  NEL: 0.9 mg/kg/day
  NOAEL: ≥ 90 mg/kg/day
[6]; reproductive / offspring survival early / dead fetuses / dead fetuses + systemic / in life observation / clinical signs / irritability
  LEL: 50 mg/kg/day
[6]; systemic / in life observation / body weight / body weight gain + systemic / in life observation / clinical signs / erythema + reproductive…
  LOAEL: 500 mg/kg/day
[6]; [33]
  NEL: 5 mg/kg/day
  NOAEL: 50 mg/kg/day

## C=CCC1=C(C)[C@@H](OC(=O)[C@@H]2[C@@H](C=C(C)C)C2(C)C)CC1=O [S-Bioallethrin]
[7]; [34]
  LEL: 50 mg/kg/day
  LOAEL: 50 mg/kg/day
  NEL: < 50 mg/kg/day
  NOAEL: < 50 mg/kg/day
[7]; group: maternal, systemic / in life observation / mortality / mortality
  LOAEL: 195 mg/kg/day
[7]; [35]
  LEL: 195 mg/kg/day
  NEL: 125 mg/kg/day
  NOAEL: 125 mg/kg/day
[8]
  LEL: 90.5 mg/kg/day
  LOAEL: 90.5 mg/kg/day
  NEL: 38.5 mg/kg/day
  NOAEL: 38.5 mg/kg/day
[9]
  LEL: 214 mg/kg/day
  LOAEL: > 214 mg/kg/day
  NEL: 41.9 mg/kg/day
  NOAEL: ≥ 214 mg/kg/day
[10]; [36]
  LEL: 420 mg/kg/day
  LOAEL: 420 mg/kg/day
[10]; [37]
  NEL: 229 mg/kg/day
  NOAEL: 229 mg/kg/day
[11]; [38]
  LEL: 20.6 mg/kg/day
  NEL: < 20.6 mg/kg/day
[11]; [39]
  LOAEL: 36.6 mg/kg/day
  NOAEL: 18.5 mg/kg/day
[12]; [40]
  LEL: 7.2 mg/kg/day
  LOAEL: 82.6 mg/kg/day
  NEL: < 7.2 mg/kg/day
[12]; systemic / clinical chemistry / alanine aminotransferase (alt/sgpt) / alanine aminotransferase (alt/sgpt) + systemic / pathology microscopic…
  NOAEL: 27 mg/kg/day
[13]; [41]
  LOAEL: 63.2 mg/kg/day
  NEL: 4.5 mg/kg/day
  NOAEL: 19.5 mg/kg/day
[13]; systemic / organ weight / liver / absolute + systemic / organ weight / liver / relative to body weight
  LEL: 19.5 mg/kg/day
[14]
  LEL: 2.7 mg/kg/day
  LOAEL: 13.7 mg/kg/day
  NEL: < 2.7 mg/kg/day
  NOAEL: 2.7 mg/kg/day

## COc1ccc2cc(S(=O)(=O)N[C@H](CC(=O)N[C@H](Cc3ccc(CN4[C@H](C)CCC[C@@H]4C)cc3)C(=O)N(C)C(C)C)c3ccc4c(c3)OCO4)ccc2c1.Cl
[15]
  LEL: 10 mg/kg/day
  LOAEL: > 100 mg/kg/day
  NEL: < 10 mg/kg/day
  NOAEL: ≥ 100 mg/kg/day
[16]
  LEL: 120 mg/kg/day
  LOAEL: > 120 mg/kg/day
  NEL: 60 mg/kg/day
  NOAEL: ≥ 120 mg/kg/day
[17]
  LEL: 100 mg/kg/day
  LOAEL: 100 mg/kg/day
  NEL: 50 mg/kg/day
  NOAEL: 50 mg/kg/day
[18]; [42]
  LEL: 180 mg/kg/day
  LOAEL: > 180 mg/kg/day
  NEL: 60 mg/kg/day
  NOAEL: ≥ 180 mg/kg/day
[18]; [43]
  LEL: 20 mg/kg/day
  NEL: < 20 mg/kg/day
[18]; [44]
  LOAEL: > 180 mg/kg/day
  NOAEL: ≥ 180 mg/kg/day
[19]; [45]
  LOAEL: 60 mg/kg/day
  NOAEL: 20 mg/kg/day
[19]; [46]
  LEL: 20 mg/kg/day
  NEL: < 20 mg/kg/day
[20]; [47]
  LOAEL: 150 mg/kg/day
  NEL: 20 mg/kg/day
  NOAEL: 60 mg/kg/day
[20]; systemic / in life observation / clinical signs / salivation
  LEL: 60 mg/kg/day
[21]; [48]
  LEL: 120 mg/kg/day
  LOAEL: 120 mg/kg/day
  NEL: 60 mg/kg/day
  NOAEL: 60 mg/kg/day
[21]; [49]
  LEL: 30 mg/kg/day
  NEL: < 30 mg/kg/day
[21]; group: maternal, systemic / in life observation / clinical signs / piloerection + systemic / in life observation / food consumption / food consumption
  LOAEL: 60 mg/kg/day
[21]; group: maternal, systemic / in life observation / clinical signs / piloerection + systemic / in life observation / food consumption / food consumption + …
  NOAEL: 30 mg/kg/day
[22]; reproductive / reproductive performance / postimplantation loss / postimplantation loss
  LEL: 60 mg/kg/day
[22]; [50]
  LOAEL: > 180 mg/kg/day
  NEL: 20 mg/kg/day
  NOAEL: ≥ 180 mg/kg/day
[23]
  LEL: 10 mg/kg/day
  LOAEL: 10 mg/kg/day
  NEL: < 10 mg/kg/day
  NOAEL: < 10 mg/kg/day
[24]; [42]
  LEL: 180 mg/kg/day
  LOAEL: 180 mg/kg/day
  NEL: 60 mg/kg/day
  NOAEL: 60 mg/kg/day
[24]; [51]
  LEL: 20 mg/kg/day
  NEL: < 20 mg/kg/day
[24]; [52]
  LOAEL: 180 mg/kg/day
  NOAEL: 60 mg/kg/day
